Reference: US20240408216A1, “PROTEIN INHIBITOR OR DEGRADING AGENT, PHARMACEUTICAL COMPOSITION CONTAINING SAME AND PHARMACEUTICAL USE” (JING MEDICINE TECHNOLOGY (SHANGHAI) LTD., priority 2021, published 2024)
Like-named read-outs stand apart in the source and are kept apart here.

How the values were obtained:
[1] = tested on: BaF3 (EGFR L858R/T790M/C797S); experiment: Cell proliferation IC50 assay (Cell Titer GLO), BaF3 LTC cells; type: cell-based; settings: Mus musculus, Ba/F3 EGFR, Table 6, 72 h
Procedure: (§1) IC50 of compounds in the present invention was determined by Cell Titer GLO reagent from Promega. The procedures are as follows:
(§2) Tumor cells were cultured in specified medium in an incubator at 37° C. and 5% CO2. The cells were passaged periodically. Cells at the logarithmic growth phase were collected for plating at a density of 2000-4000 cells/well. The next day, the compounds of the present invention were serially diluted and added to the cells, with DMSO being the negative control and the culture media without cells being the blank control. The plate was incubated in the incubator for 72 h. The cell viability assay was performed by adding the detection reagents to the cell culture media according to Cell Titer GLO reagent instructions and detecting luminescent signals on an EnVision microplate reader (PerkinElmer).
(§3) Inhibition of cell growth by the compounds of the present invention was plotted by Prism Graphpad software for statistically calculating the IC50 of the compound of the present invention.

[2] = target: T1, BaF3 (EGFR Del19/C797S) (Homo sapiens, UniProt P00533, C797S, cells depend on it, form not given); experiment: Cell proliferation IC50 assay (Cell Titer GLO), BaF3 DC cells; type: cell-based, mouse; settings: Table 6, 72 h
T1 construct: BaF3 (EGFR Del19/C797S)|DC|RPMI1640 + 10% FBS
Procedure: as §1, §2, §3

[3] = tested on: BaF3 (EGFR WT); experiment: Cell proliferation IC50 assay (Cell Titer GLO), BaF3 WT cells; type: cell-based; settings: Mus musculus, Ba/F3 EGFR, Table 6, 10 ng/ml EGF, 72 h
Procedure: as §1, §2, §3

[4] = tested on: A431; experiment: Cell proliferation IC50 assay (Cell Titer GLO), A431 cells; type: cell-based; settings: Homo sapiens
Procedure: as §1, §2, §3

[5] = A-431, Table 6, A431, 72 h, read-out: A431 IC50

T1 sequence (P00533 with tags, fused parts or gaps DEL746-750/C797S, form open): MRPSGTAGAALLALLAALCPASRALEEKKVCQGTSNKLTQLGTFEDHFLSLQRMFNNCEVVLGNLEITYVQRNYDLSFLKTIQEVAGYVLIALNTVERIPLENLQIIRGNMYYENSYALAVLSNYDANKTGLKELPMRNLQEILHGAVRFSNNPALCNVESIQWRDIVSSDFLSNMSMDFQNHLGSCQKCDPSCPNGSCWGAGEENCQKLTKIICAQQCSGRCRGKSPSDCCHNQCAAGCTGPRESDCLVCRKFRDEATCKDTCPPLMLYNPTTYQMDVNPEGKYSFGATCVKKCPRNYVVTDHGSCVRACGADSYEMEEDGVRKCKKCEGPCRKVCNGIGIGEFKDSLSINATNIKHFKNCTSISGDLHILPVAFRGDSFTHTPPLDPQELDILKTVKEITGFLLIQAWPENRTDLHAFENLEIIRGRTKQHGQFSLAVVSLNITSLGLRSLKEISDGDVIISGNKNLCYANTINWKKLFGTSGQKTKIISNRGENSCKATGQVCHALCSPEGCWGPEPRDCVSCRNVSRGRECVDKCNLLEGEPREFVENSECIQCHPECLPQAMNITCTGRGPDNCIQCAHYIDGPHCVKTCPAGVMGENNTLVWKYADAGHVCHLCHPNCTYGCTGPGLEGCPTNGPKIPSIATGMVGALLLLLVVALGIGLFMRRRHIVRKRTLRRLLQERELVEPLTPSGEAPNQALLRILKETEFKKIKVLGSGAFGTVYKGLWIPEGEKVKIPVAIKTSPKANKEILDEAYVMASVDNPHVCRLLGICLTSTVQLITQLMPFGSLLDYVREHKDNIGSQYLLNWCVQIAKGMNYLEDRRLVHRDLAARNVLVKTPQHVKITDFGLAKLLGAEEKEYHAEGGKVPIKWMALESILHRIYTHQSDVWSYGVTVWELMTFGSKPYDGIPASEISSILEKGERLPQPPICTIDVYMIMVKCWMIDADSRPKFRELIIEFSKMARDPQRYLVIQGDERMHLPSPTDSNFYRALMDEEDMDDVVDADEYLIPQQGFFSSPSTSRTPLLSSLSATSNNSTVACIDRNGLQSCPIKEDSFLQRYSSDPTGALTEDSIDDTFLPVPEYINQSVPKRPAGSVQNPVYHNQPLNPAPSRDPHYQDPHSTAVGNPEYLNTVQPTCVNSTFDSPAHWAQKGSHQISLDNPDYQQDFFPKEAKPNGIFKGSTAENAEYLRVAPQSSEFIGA

Structure (SMILES) | IC50 [1] | IC50 [2] | IC50 [3] | IC50 [4, 5] | IC50 ([4]; A-431, 72 h, read-out: A431 IC50 (nM))
CCc1cc(Nc2ncc(-c3ccnn3C)c(Nc3ccccc3P(C)(C)=O)n2)c(OC)cc1N1CCC(N2CCN(CCOc3cccc4c3CN(C3CCC(=O)NC3=O)C4=O)CC2)CC1 (stereo not drawn) [Example E176] | > 4000 nM | 2.4 nM | > 4000 nM | > 4000 nM | 
CCc1cc(Nc2ncc(Cl)c(Nc3ccccc3P(C)(C)=O)n2)c(OC)cc1N1CCC(N2Cc3cc(Oc4cccc5c4CN(C4CCC(=O)NC4=O)C5=O)ccc3C2=O)CC1 (stereo not drawn) [Example E211] | 59.2 nM |  | 3300 nM | > 4000 nM | 
CCc1cc(Nc2nc(Nc3ccccc3P(C)(C)=O)c3cc[nH]c3n2)c(C(C)(C)O)cc1N1CCC(N2CCN(CCCCOc3cccc4c3CN(C3CCC(=O)NC3=O)C4=O)CC2)CC1 (stereo not drawn) [Example E142] | 1100 nM | 124 nM | 792 nM | > 4000 nM | 
CCc1cc(Nc2ncc(-n3cncn3)c(Nc3ccccc3P(C)(C)=O)n2)c(OC)cc1N1CCC(N2CCN(CCOc3cccc4c3CN(C3CCC(=O)NC3=O)C4=O)CC2)CC1 (stereo not drawn) [Example E171] | > 4000 nM | 6.3 nM | > 4000 nM | > 4000 nM | 
CCc1cc(Nc2ncc(Cl)c(Nc3ccccc3P(C)(C)=O)n2)c(OC)cc1N1CCC(N2CCN(CCN(C)c3ccc4c(c3)CN(C3CCC(=O)NC3=O)C4=O)CC2)CC1 (stereo not drawn) [Example E223] | 69.4 nM | 11.5 nM | > 4000 nM |  | > 4000 nM
CCc1cc(Nc2ncc(Cl)c(Nc3ccccc3P(C)(C)=O)n2)c(OC)cc1N1CCC(N2CCN(CCCCOc3ccc4c(c3F)CN(C3CCC(=O)NC3=O)C4=O)CC2)CC1 (stereo not drawn) [Example E59] | 67.1 nM | 22.7 nM | 1320 nM | 1440 nM | 
CCc1cc(Nc2ncc(Cl)c(Nc3ccccc3P(C)(C)=O)n2)c(OC)cc1N1CCC(N2CCC3(CC(Oc4cccc5c4CN(C4CCC(=O)NC4=O)C5=O)C3)C2)CC1 (stereo not drawn) [Example E83] | 18 nM | 1.2 nM | 1450 nM | 1470 nM | 
CCc1cc(Nc2ncc(Cl)c(Nc3ccccc3P(C)(C)=O)n2)c(OC)cc1N1CCC(N2CCN(CCOc3cccc4c3CN(C3CCC(=O)NC3=O)C4=O)C3(CC3)C2)CC1 (stereo not drawn) [Example E144] | 105 nM | 35.2 nM | 1200 nM | 1370 nM | 
CCc1cc(Nc2ncc(-c3cnn(C)c3)c(Nc3ccc(C)cc3P(C)(C)=O)n2)c(OC)cc1N1CCC(N2CCN(Cc3ccc4c(c3)CN(C3CCC(=O)NC3=O)C4=O)CC2)CC1 (stereo not drawn) [Example E216] | > 4000 nM | 1 nM | 926 nM | > 4000 nM | 
CCc1cc(Nc2ncc(Cl)c(Nc3ccccc3P(C)(C)=O)n2)cc(C(N)=O)c1N1CCC(N2CCN(CCCCOc3cccc4c3CN(C3CCC(=O)NC3=O)C4=O)CC2)CC1 (stereo not drawn) [Example E139] | 694 nM | 60.9 nM | 554 nM | 963 nM | 
CCc1cc(Nc2ncc(-n3cnc(C)c3)c(Nc3ccccc3P(C)(C)=O)n2)c(OC)cc1N1CCC(N2CCN(CCOc3ccc4c(c3)CN(C3CCC(=O)NC3=O)C4=O)CC2)CC1 (stereo not drawn) [Example E214] | > 4000 nM | 3.4 nM | 616 nM | 1460 nM | 
CCc1cc(Nc2nc(Nc3ccccc3P(C)(C)=O)c3cc[nH]c3n2)c(OC)cc1N1CCC(N2CCN(CCCCOc3cc(F)cc4c3CN(C3CCC(=O)NC3=O)C4=O)CC2)CC1 (stereo not drawn) [Example E141] | 50.3 nM | 14.7 nM | > 4000 nM | > 4000 nM | 
CCc1cc(Nc2ncc(Cl)c(Nc3ccccc3P(C)(C)=O)n2)c(OC)cc1N1CCC(N2CCN(CCOc3cc(F)cc4c3CN(C3CCC(=O)NC3=O)C4=O)CC2)CC1 (stereo not drawn) [Example E66] | 59.7 nM | 10.6 nM | 2490 nM | 1990 nM | 
COc1cc(N2CCC(N3CCN(CCC#Cc4cccc5c4CN(C4CCC(=O)NC4=O)C5=O)CC3)CC2)c(C#N)cc1Nc1ncc(Cl)c(Nc2ccccc2P(C)(C)=O)n1 (stereo not drawn) [Example E52] | 41.7 nM | 15.2 nM | > 4000 nM | 1040 nM | 
CCc1cc(Nc2ncc(-c3nc(C)no3)c(Nc3ccccc3P(C)(C)=O)n2)c(OC)cc1N1CCC(N2CCN(CCOc3cccc4c3CN(C3CCC(=O)NC3=O)C4=O)CC2)CC1 (stereo not drawn) [Example E149] | 3480 nM | 37.2 nM | 1290 nM | > 4000 nM | 
CCc1cc(Nc2ncc(Cl)c(Nc3ccccc3P(C)(C)=O)n2)c(OC)cc1N1CCC(N2CCc3ccc(Oc4cccc5c4CN(C4CCC(=O)NC4=O)C5=O)cc3CC2)CC1 (stereo not drawn) [Example E34] | 16.9 nM | 2.5 nM | 1260 nM | 1480 nM | 

Structure (SMILES) | IC50 [1] | IC50 [2] | IC50 [3] | IC50 [4, 5] | IC50 ([4]; A-431, 72 h, read-out: A431 IC50 (nM))
CCc1cc(Nc2ncc(-c3cn(C)nn3)c(Nc3ccccc3P(C)(C)=O)n2)c(OC)cc1N1CCC(N2CCN(CCOc3ccc4c(c3)CN(C3CCC(=O)NC3=O)C4=O)CC2)CC1 (stereo not drawn) [Example E193] | > 4000 nM | 14.9 nM | 1320 nM | > 4000 nM | 
CCc1cc(Nc2ncc(-c3cnn(C)c3)c(Nc3ccccc3P(C)(C)=O)n2)c(OC)cc1N1CCC(N2CCN(Cc3ccc4c(c3)CN(C3CCC(=O)NC3=O)C4=O)CC2)CC1 (stereo not drawn) [Example E217] | > 4000 nM | 0.9 nM | 623 nM | > 4000 nM | 
COc1cc(N2CCC3(CCN(CCCC#Cc4cccc5c4CN(C4CCC(=O)NC4=O)C5=O)CC3)CC2)c(C2CC2)cc1Nc1ncc(Cl)c(Nc2ccccc2P(C)(C)=O)n1 (stereo not drawn) [Example E62] | 96.1 nM | 51.1 nM | > 4000 nM | > 4000 nM | 
CCc1cc(Nc2ncc(Cl)c(Nc3ccccc3P(C)(C)=O)n2)c(OC)cc1N1CCC(N2CCN(CCC#Cc3c(F)ccc4c3CN(C3CCC(=O)NC3=O)C4=O)CC2)CC1 (stereo not drawn) [Example E54] | 51.4 nM | 20.3 nM | 353 nM | 1180 nM | 
CCc1cc(Nc2ncc(Cl)c(Nc3ccccc3P(C)(C)=O)n2)c(OC)cc1N1CCC(N2Cc3ccc(Sc4cccc5c4CN(C4CCC(=O)NC4=O)C5=O)cc3C2)CC1 (stereo not drawn) [Example E173] | 181 nM | 21.7 nM | 1530 nM | > 4000 nM | 
COc1cc2c(cc1Nc1ncc(Cl)c(Nc3ccccc3P(C)(C)=O)n1)CCN(C1CCN(C(=O)COc3cccc4c3CN(C3CCC(=O)NC3=O)C4=O)CC1)C2 (stereo not drawn) [Example E100] | 1130 nM | 515 nM | 1230 nM | > 4000 nM | 
CCc1cc(Nc2ncc(-c3cc(C)n[nH]3)c(Nc3ccccc3P(C)(C)=O)n2)c(OC)cc1N1CCC(N2CCN(CCOc3ccc4c(c3)CN(C3CCC(=O)NC3=O)C4=O)CC2)CC1 (stereo not drawn) [Example E192] | > 4000 nM | 43.8 nM | > 4000 nM | > 4000 nM | 
CCc1cc(Nc2ncc(Cl)c(Nc3ccccc3P(C)(C)=O)n2)c(OC)cc1N1CCC(N2CCN(CCNc3cccc4c3C(=O)N(C3CCC(=O)NC3=O)C4=O)CC2)CC1 (stereo not drawn) [Example E106] | 226 nM | 16.8 nM | > 4000 nM | 1370 nM | 
CCc1cc(Nc2ncc(Cl)c(Nc3ccccc3P(C)(C)=O)n2)c(OC)cc1N1CCC2(CCN(C(=O)COc3cccc4c3CN(C3CCC(=O)NC3=O)C4=O)CC2)CC1 (stereo not drawn) [Example E104] | 43.8 nM | 9.1 nM | 2270 nM | > 4000 nM | 
CCc1cc(Nc2ncc(-n3ccnc3)c(Nc3ccccc3P(C)(C)=O)n2)c(OC)cc1N1CCC(N2CCN(CCOc3cccc4c3CN(C3CCC(=O)NC3=O)C4=O)CC2)CC1 (stereo not drawn) [Example E170] | > 4000 nM | 3.5 nM | > 4000 nM | > 4000 nM | 
CCc1cc(Nc2ncc(Cl)c(Nc3ccccc3P(C)(C)=O)n2)c(OC)cc1N1CCC(N2CCN(CCCCOc3cccc4c3CN(C3CCC(=O)NC3=O)C4=O)CC2=O)CC1 (stereo not drawn) [Example E101] | 51.6 nM | 6.8 nM | 1690 nM | 1440 nM | 
CCc1cc(Nc2ncc(-c3cnn(C)c3)c(Nc3ccccc3P(C)(C)=O)n2)c(OC)cc1N1CCC(N2CCN(CCOc3cc(F)cc4c3CN(C3CCC(=O)NC3=O)C4=O)CC2)CC1 (stereo not drawn) [Example E194] | > 4000 nM | 0.5 nM | 535 nM | 1360 nM | 
CCc1cc(Nc2ncc(Cl)c(Nc3ccccc3P(C)(C)=O)n2)c(OC)nc1N1CCC(N2CCN(CCC#Cc3cccc4c3CN(C3CCC(=O)NC3=O)C4=O)CC2)CC1 (stereo not drawn) [Example E41] | 44.4 nM | 8.2 nM | ≥ 1060 nM | 2240 nM | 
CCc1cc(Nc2ncc(C(=O)OC(C)C)c(Nc3ccccc3P(C)(C)=O)n2)c(OC)cc1N1CCC(N2CCN(CCCCOc3cccc4c3CN(C3CCC(=O)NC3=O)C4=O)CC2)CC1 (stereo not drawn) [Example E105] | 2060 nM | 10.5 nM | 1490 nM | 1970 nM | 
CCc1cc(Nc2ncc(-c3ccn(C)n3)c(Nc3ccccc3P(C)(C)=O)n2)c(OC)cc1N1CCC(N2CCN(CCOc3cccc4c3CN(C3CCC(=O)NC3=O)C4=O)CC2)CC1 (stereo not drawn) [Example E147] | 2000 nM | 56.1 nM | 1570 nM | > 4000 nM | 
